Test results taken from patent US11980596B2 (priority 2017, dated 2024).

Assays:
[1] = test system: CYPs and UGTs
[2] = test system: adult female rats; conditions: single intranasal dose; 200-gram rat
[3] = test system: rat; assay: 2-year rat carcinogenicity study; type: in vivo; conditions: once-daily intranasal 4.5, 15 and 45 mg/kg/day; 2 years
[4] = test system: glutamate NMDA receptor; conditions: cited from earlier work
[5] = test system: adult female rats; assay: Single-dose neuronal toxicity study (neuronal vacuolation), intranasal esketamine (label); conditions: rat, in vivo
[6] = test system: patients with treatment-resistant depression (TRD); assay: GAD-7 (Example 7); type: in vivo, human
Method: Overall illness severity was assessed on the Clinical Global Impression of Severity (CGI-S) scale (Guy, “ECDEU Assessment Manual for Psychopharmacology—Revised (DHEW Publ No ADM 76-338)”, Rockville, Md.: U.S. Department of Health, Education, and Welfare, Public Health Service, Alcohol, Drug Abuse, and Mental Health Administration, NIMH Psychopharmacology Research Branch, Division of Extramural Research Programs; 1976, pp 218-222). Participants assessed their severity of anxiety on the Generalized Anxiety Disorder 7-item (GADS-7) Scale (See, Tables 157 and 158). See, Spitzer, “A brief measure for assessing generalized anxiety disorder—the GAD-7”, Arch. Intern. Med., 2006, 166(10): 1092-1097.

[7] = test system: adult subjects with TRD; conditions: post dose
Method: The MOAA/S was used to measure treatment-emergent sedation, with correlation to levels of sedation defined by the American Society of Anesthesiologists (ASA) continuum. The MOAA/S scores range from 0=no response to painful stimulus (corresponds to ASA continuum for general anesthesia) to 5=readily responds to name spoken in normal tone (awake; corresponds to ASA continuum for minimal sedation).
On each intranasal dosing day, the MOAA/S was performed every 15 minutes from pre-dose to t=+1.5 hours post-dose. If the score was ≤3 at any time during the 1.5 hours post-dose interval, the MOAA/S was performed every 5 minutes until a score of 4 is reached (at which point a frequency of every 15 minutes can be resumed until t=+1.5 hours post dose). […] For subjects with a score of 4, the assessment was repeated every 15 minutes. […]
The Modified Observer's Assessment of Alertness/Sedation (MOAA/S) was used to measure treatment-emergent sedation with correlation to levels of sedation defined by the American Society of Anesthesiologists (ASA) continuum. The MOAA/S scores ranged from 0 (No response to painful stimulus; corresponds to ASA continuum for general anesthesia) to 5 (Readily responds to name spoken in normal tone [awake]; corresponding to ASA continuum for minimal sedation).

[8] = Screening in vitro micronucleus test; conditions: in the presence of metabolic activation
[9] = test system: subjects with MDD at imminent risk for suicide; assay: Beck Scale for Suicidal Ideation (BSS) ([…]2001); type: in vivo, human
Method: The BSS is a 21-item self-reported instrument to detect and measure the severity of suicidal ideation in adults and adolescents aged 17 years and older. The BSS total score represents the severity of suicide ideation, and it is calculated by summing the ratings of the first 19 items; the total score ranges from 0 to 38, with a higher score representing greater suicide ideation. Increasing scores reflect increases in suicidal risk.

[10] = test system: pregnant rats and pups; assay: Pre- and postnatal study, intranasal esketamine, pregnant rats; type: in vivo, rat
Method: (§1) This sensory/motor developmental measure was tested starting on postnatal day (PND) 9, and the effect normalized by PND 19 in treatment groups as compared with PND 14 for the majority of the control animals. There is no NOAEL for this delay in sensory/motor response observed in pups during the preweaning period.

[11] = as above; type: in vivo, rat; conditions: female, rat, in vivo, inhaled or intranasal; intranasal; pregnancy and lactation; read-out: NOAEL for maternal toxicity and decreased motor activity during the postweaning period
Method: as §1

[12] = test system: CYP2B6 and CYP3A4 and to a lesser extent CYP2C9 and CYP2C19; assay: Metabolism by cytochrome P450 enzymes; conditions: human
[13] = test system: rat liver cells; assay: In vivo Comet assay; conditions: intravenously-administered
[14] = test system: subjects with MDD at imminent risk for suicide; type: in vivo, human; conditions: post dose
Method: Transient blood pressure increases peaked for the esketamine group at approximately 40 minutes post dose with the maximum mean increases (across all dosing days) in systolic BP being 8.7 in the placebo group and 16.7 in the esketamine 84 mg group. The maximum mean increases (across all dosing days) in diastolic BP were 7.6 in the placebo group and 11.9 in the esketamine 84 mg group. […] See, FIGS. 46 and 47.

[15] = test system: subjects with MDD at imminent risk for suicide; assay: Beck Hopelessness Scale (BHS) ([…]2001); type: in vivo, human; conditions: for BHS total score: change vs placebo: 84 mg
Text: The BHS is a self-reported measure to assess one's level of negative expectations or pessimism regarding the future. It consists of 20 true-false items that examine the respondent's attitude over the past week by either endorsing a pessimistic statement or denying an optimistic statement. For every statement, each response is assigned a score of 0 or 1. The total BHS score is a sum of item responses and ranges from 0 to 20, with a higher score representing a higher level of hopelessness.

[16] = single dose; 72 mg
Method: This study includes a single dose and 14-day repeated dose neurotoxicity studies with intranasally administered esketamine in female rats 12 to 14 weeks of age. These studies were conducted to investigate whether single or repeated intranasal administrations of esketamine induced neurodegenerative changes in the rat brain. The study results were used to estimate an esketamine exposure-based safety margin compared with the maximum dose of esketamine administered intranasally to depressed adult patients in clinical trials.
The vehicle- and the 36 and 54 mg-dosed groups consisted of 24 animals per group, while the 72 mg-dosed and positive control groups involved 30 animals per group. Four satellite animals were added to the esketamine HCl-dosed groups of main study animals for toxicokinetic (TK) purposes. In these animals the plasma exposure to esketamine was measured on the day of dosing at various time points up to and including 24 hours after the first instillation.

[17] = esketamine 84 mg minus placebo, ANCOVA LOCF
[18] = esketamine 84 mg, LOCF, ITT, N = 34
[19] = esketamine 84 mg, LOCF, ITT, N = 34, negative change = improvement
[20] = esketamine 84 mg, predose Day 1, ITT, N = 34
[21] = esketamine 84 mg, LOCF, ITT, N = 35
[22] = esketamine 84 mg, LOCF, ITT, N = 35, negative change = improvement

## CN[C@]1(c2ccccc2Cl)CCCCC1=O [esketamine, (S)-2-(2-chlorophenyl)-2-(methylamino)cyclohexanone]
[1]
  Inhibition potential against CYPs and UGTs: did not show inhibition potential
[2]
  Highest dose equivalent with no findings of neuronal vacuolation in the brain: 45 mg/kg
[3]
  Incidence of tumors: did not increase the incidence of tumors
[4]
  Affinity for the glutamate NMDA receptor in vitro, fold greater than R-ketamine: 3 to 4 fold
[5]
  Safety margin to clinical exposure at the MRHD of 84 mg/day, AUC: 1.8 times
  Safety margin to clinical exposure at the MRHD of 84 mg/day, Cmax: 4.5 times
[6]; Period 1, esketamine 28 mg intranasal
  GAD-7 change from baseline, LS mean (SE): −1.5 (1.34)
[6]; Period 1, esketamine 56 mg intranasal
  GAD-7 change from baseline, LS mean (SE): −3.1 (1.34)
[6]; Period 1, esketamine 84 mg intranasal
  GAD-7 change from baseline, LS mean (SE): −5.1 (1.30)
[6]; Period 2, esketamine 28 mg intranasal
  GAD-7 change from baseline, LS mean (SE): −1.6 (0.87)
[6]; Period 2, esketamine 56 mg intranasal
  GAD-7 change from baseline, LS mean (SE): 1.0 (0.98)
[6]; Period 2, esketamine 84 mg intranasal
  GAD-7 change from baseline, LS mean (SE): −0.9 (1.02)
[7]
  Sedation (MOAA/S) resolved by: ≤ 1.5 h
[8]
  Genotoxicity: Genotoxic effects
[9]; 84 mg, Day 1: 4-hours postdose, Day 2 (DB), End Point (DB)
  BSS total score: change vs placebo: no statistically significant differences
[9]; [17]
  BSS total score, change to Day 1 (DB): 4H, Diff. of LS Means (SE): −2.3 (2.29)
  BSS total score, change to Day 2 (DB), Diff. of LS Means (SE): −1.9 (2.30)
  BSS total score, change to End Point (DB), Diff. of LS Means (SE): −1.7 (2.15)
[9]; [18]
  BSS total score, Day 2 (DB), Median (Range): 13.0 (0; 34)
  BSS total score, End Point (DB), Mean (SD): 4.7 (9.03)
  BSS total score, End Point (DB), Median (Range): 0.0 (0; 34)
[9]; [19]
  BSS total score, Change from Baseline to Day 1 (DB): 4H, Median (Range): −8.0 (−33; 8)
  BSS total score, Change from Baseline to End Point (DB), Median (Range): −21.0 (−33; 8)
[9]; [20]
  BSS total score, Baseline (DB), Mean (SD): 24.0 (5.45)
  BSS total score, Baseline (DB), Median (Range): 25.0 (8; 33)
[10]; 4.5 mg/kg/day intranasal
  AUC exposure, multiple of the MRHD of 84 mg/day: 0.07 times
[10]; 15 mg/kg/day intranasal
  AUC exposure, multiple of the MRHD of 84 mg/day: 0.5 times
[10]; 45 mg/kg/day intranasal
  AUC exposure, multiple of the MRHD of 84 mg/day: 0.7 times
[11]
  NOAEL: 4.5 mg/kg/day
[12]
  Metabolic pathway: primarily metabolized to noresketamine metabolite via cytochrome P450 (CYP) enzymes CYP2B6 and CYP3A4
[13]
  Genotoxicity: devoid of genotoxic properties
[14]
  Blood pressure returning to normal range by: ≤ 2 h
[15]; Day 1: 4-hours postdose
  BHS total score: change vs placebo: no statistically significant difference
[15]; End Point (DB)
  BHS total score: change vs placebo: statistically superior
[15]; [17]
  BHS total score, change to Day 1 (DB): 4H, Diff. of LS Means (SE): −1.5 (1.47)
  BHS total score, change to End Point (DB), Diff. of LS Means (SE): −2.3 (1.66)
[15]; [21]
  BHS total score, Day 1 (DB): 4H, Median (Range): 14.0 (0; 20)
  BHS total score, End Point (DB), Mean (SD): 6.2 (5.96)
  BHS total score, End Point (DB), Median (Range): 4.0 (0; 20)
[15]; [22]
  BHS total score, Change from Baseline to Day 1 (DB): 4H, Mean (SD): −4.1 (5.63)
  BHS total score, Change from Baseline to Day 1 (DB): 4H, Median (Range): −2.0 (−16; 2)
  BHS total score, Change from Baseline to End Point (DB), Median (Range): −11.0 (−19; 0)
[15]; esketamine 84 mg, predose Day 1, ITT, N = 35
  BHS total score, Baseline (DB), Median (Range): 17.0 (9; 20)
[16]
  AUC-based safety margin compared with the maximum 84 mg clinical dose: ~86 fold
  Cmax-based safety margin compared with the maximum 84 mg clinical dose: approximately 60 fold
